Assay results reported in a melting point compilation (Tetko et al.; mined from patent text by program, amines drawn as free bases though some values may be those of a salt).

Structure (SMILES)	melting point [°C]
COCC1CN(c2ccc(C3CC3)cc2)C(=O)O1 (racemic)	58 to 60
COC(=O)C1=C(C)NC(CCn2ccnc2)=C(C(=O)OC)C1c1cccc(Cl)c1Cl (stereo not given)	180 to 182
COc1cc(C(C)C)ccc1C1COc2c(C)c(C)c(N)c(C)c21 (stereo not given)	120 to 121
COc1ccc(C(=O)Cc2ncccc2C(=O)O)cc1	158 to 163
COc1ccc2c(c1)Sc1nccnc1N2	210 to 211
CCC(C)N1CCc2c(C(=O)O)nc3c(C#N)cnn3c21 (stereo not given)	191 to 192
COC(=O)[C@@H](C)Nc1ncccc1[N+](=O)[O-]	39 to 40
CC(C)Sc1sc(-c2cc[nH]n2)c2c1C(=O)CC(C)(C)C2	195 to 198
CN1CCN(C2=Nc3ccc(F)cc3Nc3sc4cc(Br)ccc4c32)CC1	219 to 221
Cc1oc(-c2ccccc2)nc1COc1ccc(CON=C(CCC(=O)O)c2ccc(F)cc2)cc1	139 to 140
CCN(CC)CCNc1cc(Cl)cc(NCCN(CC)CC)c1[N+](=O)[O-]	90
COc1cc(C=O)ccc1OCCCC(=O)O	143 to 148
Cc1cc(-n2ccc(OCc3ccccc3)cc2=O)sc1C(=O)NCc1cccc(F)c1	140 to 141
C[C@H](COc1ccc(F)cc1)Nc1nc(Cl)nc2c1ncn2[C@@H]1O[C@H](CO)[C@@H](O)[C@H]1O	172 to 173
CCOC(=O)COc1ccc(C(=O)Nc2ccccc2Sc2ccc(-c3nnn[nH]3)cc2)cc1	148 to 149
Cc1cc(NC(=O)N(C)c2ccccc2)cc(C)c1S(=O)(=O)C[N+](=O)[O-]	117 to 118
Cc1csc2c(=O)n(N=Cc3ccc(Cl)cc3)cnc12	213 to 215
O=C1Cc2ccccc2C12COc1cc3c(cc12)OCC(Cc1ccccc1C(F)F)O3 (stereo not given)	191 to 193
CN(c1cccc2cc(C3=NCC4(CCN(CC#N)CC4)S3)[nH]c12)S(=O)(=O)c1cccs1	211
CN(C)CCCCNc1ncc2c(n1)-c1ccccc1C(c1cccc(Br)c1)C2 (stereo not given)	115 to 117
CCOC(=O)CNC(=O)c1nc2ccc(NCCCN3CCC(OC(c4ccccc4)c4ccccc4)CC3)nn2n1	175 to 177
OC1CCC(c2ccc(OCCCCCCCCCCCBr)cc2)CC1 (stereo not given)	100 to 101
CC(C)(C)N1C(=O)c2cnc(-c3ccccc3)nc2N(C(=O)CCl)c2ccccc21	176 to 177
COc1ccc(C(=O)c2cccc3c2CCC3C(N)=O)cc1 (stereo not given)	164 to 166
COc1nc(C)nc(C(F)(F)F)c1I	44 to 45

Structure (SMILES)	melting point [°C]
CN(C(=O)OC(C)(C)C)[C@@H](Cc1ccc(O)cc1)C(=O)N1CCN(c2ccc(Cl)c(Cl)c2)CC1	77 to 78
N[C@H]1CC[C@@H](C(=O)N2CCC(c3[nH]nc4c3C(=O)c3c(NC(=O)NN5CCOCC5)cccc3-4)CC2)CC1	202 to 204
Cc1csc2c1c(C(=O)c1ccc(Cl)cc1)cn2C(C)C(=O)O (stereo not given)	149
c1cc2c(s1)CNCCS2	138 to 139
CCc1ccc2c(c1)OC(C(F)(F)F)C(C(=O)O)=C2 (stereo not given)	167 to 169
COC1=CC=C(CN2CCN(CCCC(=O)c3ccc(F)cc3)CC2)C(F)C1=NNS(=O)(=O)c1ccc(C)cc1 (stereo not given)	66 to 67
CN(C)C1CC2=CNC=C3C=C(C=O)OCC1=C32 (stereo not given)	175 to 176
COc1ccc2c(c1N)C(CCNC(C)=O)CC2 (stereo not given)	94 to 97
CC(=O)Nc1cc2c(cc1[N+](=O)[O-])OC(C)(C)[C@@H](Br)[C@@H]2O (relative stereo)	198 to 200
Cc1cc(C2=NN=C(C=NNC(N)=O)Cc3cc4c(cc32)OCO4)ccc1[N+](=O)[O-]	260 to 264
Clc1cccc(Nc2nccc(-c3ccnc(Cl)c3)n2)c1	144 to 147
Cc1cc(SCCc2cccc3sc(-c4ccc(C(F)(F)F)cc4)nc23)ccc1OCC(=O)O	97 to 100
Cc1[nH]c(=O)c(C#N)cc1-c1ccc(CC(=O)O)cc1	280 to 282
Cc1ccc([C@H]2O[C@@H]2C(N)=O)cc1	183 to 185
Cn1cc(C(N)=O)c(=O)c2sc(Cl)cc21	325 to 327
CC(C)c1nc(-c2c(F)c(F)cc(F)c2F)cc(-c2ccc(F)cc2)c1C=C(Br)Br	77
CCCCOc1c(CNC(=O)OC(C)(C)C)n(CC(C)C)c(=O)c2ccc(-c3nc(C(=O)O)cs3)cc12	195 to 196
COCCOCc1c(CO)sc2c(=O)c(C(=O)NCc3ccc(Cl)cc3)cn(C)c12	167 to 168
CC(C)c1cc(O)cc2c1C(=O)N(CSc1ccccc1)S2(=O)=O	127 to 130
CCCCn1cc(C(=O)C(=O)O)c2cc(-c3cccc(Cl)c3)ccc21	108 to 109
O=[N+]([O-])c1ccc2c(c1)OCC2	71 to 72
CCc1ccc(/C=C/c2nc(COc3ccc(CCCCn4ccnc4CCO)cc3)co2)cc1	94 to 95
CON(C)Cc1nc2c(N)nc3ccccc3c2n1CC1CCOCC1	223 to 226
Cc1nc(N2CCc3ccccc3CC2)c(C#N)c(=O)n1C	155 to 158
CCCCOc1ccc2c(c1)C(N(CCCO)S(C)(=O)=O)CC(C)(C)O2 (stereo not given)	69 to 71
